Test results reported in US9737535B2, “Methods for treating cancer using TOR kinase inhibitor combination therapy comprising administering substituted pyrazino[2,3-b]pyrazines” (Signal Pharmaceuticals, LLC, priority 2014, dated 2017).

These molecules were tested on MCF7 (assay: Anti-proliferation assay (ATPLite), Chalice synergy score). Conditions: Compound 1 in combination with second active agent, mean self-cross + 2σ threshold 3.07.
Assay type: cell-based
Text: (§1) Cells were thawed from a liquid nitrogen preserved state.
(§2) The calculation for synergy score is provided below.
(§3) If T≧V0:100*[1−(T−V0)/(V−V0)]
Oc1c2ccccc2c2c3c(cccc13)N=N2 [SP 600125] was tested, and the Synergy score was 0.75. c1ccc2c(CCNc3ccc(Nc4ccncc4)cc3)c[nH]c2c1 [JNJ 26854165] was tested, and the Synergy score was 1.82. CC(=O)c1c(C)c2cnc(Nc3ccc(N4CCNCC4)cn3)nc2n(C2CCCC2)c1=O [PD-0332991] was tested, and the Synergy score was 2.48.

What follows are molecules tested on HCC70 in the same assay as above. Conditions: Compound 1 in combination with second active agent; HCC-70; mean self-cross + 2σ threshold 3.45.
Assay type: cell-based
Text: as §1, §2, §3
CS(=O)(=O)c1ccc(C(=O)Nc2ccc(Cl)c(-c3ccccn3)c2)c(Cl)c1 [GDC-0449] showed a Synergy score of 1.10. With Oc1c2ccccc2c2c3c(cccc13)N=N2 [SP 600125] the Synergy score was 3.49. With c1ccc2c(CCNc3ccc(Nc4ccncc4)cc3)c[nH]c2c1 [JNJ 26854165] the Synergy score was 2.46. In the case of CC(=O)c1c(C)c2cnc(Nc3ccc(N4CCNCC4)cn3)nc2n(C2CCCC2)c1=O [PD-0332991], the Synergy score was 2.17.

The molecules below were run on BT-549 in the same assay as above. Conditions: Compound 1 in combination with the named second active agent, 72 h, mean of n = 3 experiments in triplicate.
Assay type: cell-based
Text: as §1, §2, §3
Oc1c2ccccc2c2c3c(cccc13)N=N2 [SP 600125] gave a Synergy score of 1.47. c1ccc2c(CCNc3ccc(Nc4ccncc4)cc3)c[nH]c2c1 [JNJ 26854165] was tested, and the Synergy score was 0.78. Work on CC(=O)c1c(C)c2cnc(Nc3ccc(N4CCNCC4)cn3)nc2n(C2CCCC2)c1=O [PD-0332991] yielded a Synergy score of 1.10.

These molecules were tested on Hs-578-T in the same assay as above. Conditions: Compound 1 in combination with second active agent, mean self-cross + 2σ threshold 4.09.
Assay type: cell-based
Text: as §1, §2, §3
Work on CS(=O)(=O)c1ccc(C(=O)Nc2ccc(Cl)c(-c3ccccn3)c2)c(Cl)c1 [GDC-0449] yielded a Synergy score of 0.28. Oc1c2ccccc2c2c3c(cccc13)N=N2 [SP 600125] gave a Synergy score of 0.97. Work on c1ccc2c(CCNc3ccc(Nc4ccncc4)cc3)c[nH]c2c1 [JNJ 26854165] yielded a Synergy score of 1.28. In the case of CC(=O)c1c(C)c2cnc(Nc3ccc(N4CCNCC4)cn3)nc2n(C2CCCC2)c1=O [PD-0332991], the Synergy score was 0.75.

What follows are molecules tested on HCC-1806 in the same assay as above. Conditions: Compound 1 in combination with the named second active agent, 72 h, mean of n = 3 experiments in triplicate.
Assay type: cell-based
Text: as §1, §2, §3
Molecule CS(=O)(=O)c1ccc(C(=O)Nc2ccc(Cl)c(-c3ccccn3)c2)c(Cl)c1 [GDC-0449] has a Synergy score of 0.20. In the case of Oc1c2ccccc2c2c3c(cccc13)N=N2 [SP 600125], the Synergy score was 1.16. In the case of c1ccc2c(CCNc3ccc(Nc4ccncc4)cc3)c[nH]c2c1 [JNJ 26854165], the Synergy score was 2.51. CC(=O)c1c(C)c2cnc(Nc3ccc(N4CCNCC4)cn3)nc2n(C2CCCC2)c1=O [PD-0332991] showed a Synergy score of 1.54.

Each molecule was assayed on HCC-1937 in the same assay as above. Conditions: Compound 1 in combination with the named second active agent, 72 h, mean of n = 3 experiments in triplicate.
Assay type: cell-based
Text: as §1, §2, §3
CS(=O)(=O)c1ccc(C(=O)Nc2ccc(Cl)c(-c3ccccn3)c2)c(Cl)c1 [GDC-0449] showed a Synergy score of 0.88. In the case of Oc1c2ccccc2c2c3c(cccc13)N=N2 [SP 600125], the Synergy score was 0.87. In the case of CC(=O)c1c(C)c2cnc(Nc3ccc(N4CCNCC4)cn3)nc2n(C2CCCC2)c1=O [PD-0332991], the Synergy score was 0.55.

The molecules below were run on MDA-MB-231 in the same assay as above. Conditions: Compound 1 in combination with second active agent, mean self-cross + 2σ threshold 2.61.
Assay type: cell-based
Text: as §1, §2, §3
For CS(=O)(=O)c1ccc(C(=O)Nc2ccc(Cl)c(-c3ccccn3)c2)c(Cl)c1 [GDC-0449], the Synergy score was 0.08. Oc1c2ccccc2c2c3c(cccc13)N=N2 [SP 600125] was tested, and the Synergy score was 0.65. For c1ccc2c(CCNc3ccc(Nc4ccncc4)cc3)c[nH]c2c1 [JNJ 26854165], the Synergy score was 0.31. In the case of CC(=O)c1c(C)c2cnc(Nc3ccc(N4CCNCC4)cn3)nc2n(C2CCCC2)c1=O [PD-0332991], the Synergy score was 2.88.

What follows are molecules tested on MDA-MB-468 in the same assay as above. Conditions: Compound 1 in combination with second active agent, mean self-cross + 2σ threshold 4.66.
Assay type: cell-based
Text: as §1, §2, §3
For CS(=O)(=O)c1ccc(C(=O)Nc2ccc(Cl)c(-c3ccccn3)c2)c(Cl)c1 [GDC-0449], the Synergy score was 0.44. c1ccc2c(CCNc3ccc(Nc4ccncc4)cc3)c[nH]c2c1 [JNJ 26854165] showed a Synergy score of 3.28. Molecule CC(=O)c1c(C)c2cnc(Nc3ccc(N4CCNCC4)cn3)nc2n(C2CCCC2)c1=O [PD-0332991] has a Synergy score of 2.12.

Each molecule was assayed on BT-474 in the same assay as above. Conditions: Compound 1 in combination with the named second active agent, 72 h, mean of n = 3 experiments in triplicate.
Assay type: cell-based
Text: as §1, §2, §3
For CS(=O)(=O)c1ccc(C(=O)Nc2ccc(Cl)c(-c3ccccn3)c2)c(Cl)c1 [GDC-0449], the Synergy score was 1.47. Oc1c2ccccc2c2c3c(cccc13)N=N2 [SP 600125] showed a Synergy score of 0.72. c1ccc2c(CCNc3ccc(Nc4ccncc4)cc3)c[nH]c2c1 [JNJ 26854165] was tested, and the Synergy score was 1.77. For CC(=O)c1c(C)c2cnc(Nc3ccc(N4CCNCC4)cn3)nc2n(C2CCCC2)c1=O [PD-0332991], the Synergy score was 0.31.

The molecules below were run on MDA-MB-157 in the same assay as above. Conditions: Compound 1 in combination with second active agent, mean self-cross + 2σ threshold 4.68.
Assay type: cell-based
Text: as §1, §2, §3
Work on CS(=O)(=O)c1ccc(C(=O)Nc2ccc(Cl)c(-c3ccccn3)c2)c(Cl)c1 [GDC-0449] yielded a Synergy score of 0.77. With Oc1c2ccccc2c2c3c(cccc13)N=N2 [SP 600125] the Synergy score was 1.18. For c1ccc2c(CCNc3ccc(Nc4ccncc4)cc3)c[nH]c2c1 [JNJ 26854165], the Synergy score was 2.53. CC(=O)c1c(C)c2cnc(Nc3ccc(N4CCNCC4)cn3)nc2n(C2CCCC2)c1=O [PD-0332991] showed a Synergy score of 0.73.

The molecules below were run on HCC-1428 in the same assay as above. Conditions: Compound 1 in combination with the named second active agent, 72 h, mean of n = 3 experiments in triplicate.
Assay type: cell-based
Text: as §1, §2, §3
In the case of CS(=O)(=O)c1ccc(C(=O)Nc2ccc(Cl)c(-c3ccccn3)c2)c(Cl)c1 [GDC-0449], the Synergy score was 0.07. With Oc1c2ccccc2c2c3c(cccc13)N=N2 [SP 600125] the Synergy score was 1.44. In the case of c1ccc2c(CCNc3ccc(Nc4ccncc4)cc3)c[nH]c2c1 [JNJ 26854165], the Synergy score was 1.02. CC(=O)c1c(C)c2cnc(Nc3ccc(N4CCNCC4)cn3)nc2n(C2CCCC2)c1=O [PD-0332991] was tested, and the Synergy score was 2.01.

Each molecule was assayed on MDA-MB-436 in the same assay as above. Conditions: Compound 1 in combination with second active agent, mean self-cross + 2σ threshold 1.91.
Assay type: cell-based
Text: as §1, §2, §3
For Oc1c2ccccc2c2c3c(cccc13)N=N2 [SP 600125], the Synergy score was 0.79. For c1ccc2c(CCNc3ccc(Nc4ccncc4)cc3)c[nH]c2c1 [JNJ 26854165], the Synergy score was 1.47. With CC(=O)c1c(C)c2cnc(Nc3ccc(N4CCNCC4)cn3)nc2n(C2CCCC2)c1=O [PD-0332991] the Synergy score was 0.44.

These molecules were tested on HCC-1187 in the same assay as above. Conditions: Compound 1 in combination with the named second active agent, 72 h, mean of n = 3 experiments in triplicate.
Assay type: cell-based
Design: scale not given here
Text: as §1, §2, §3
CS(=O)(=O)c1ccc(C(=O)Nc2ccc(Cl)c(-c3ccccn3)c2)c(Cl)c1 [GDC-0449] was tested, and the Synergy score was 3.07. For Oc1c2ccccc2c2c3c(cccc13)N=N2 [SP 600125], the Synergy score was 5.59. Work on c1ccc2c(CCNc3ccc(Nc4ccncc4)cc3)c[nH]c2c1 [JNJ 26854165] yielded a Synergy score of 1.63. CC(=O)c1c(C)c2cnc(Nc3ccc(N4CCNCC4)cn3)nc2n(C2CCCC2)c1=O [PD-0332991] was tested, and the Synergy score was 2.76.

The molecules below were run on HCC-1500 in the same assay as above. Conditions: Compound 1 in combination with the named second active agent, 72 h, mean of n = 3 experiments in triplicate.
Assay type: cell-based
Design: scale not given here
Text: as §1, §2, §3
In the case of CS(=O)(=O)c1ccc(C(=O)Nc2ccc(Cl)c(-c3ccccn3)c2)c(Cl)c1 [GDC-0449], the Synergy score was 0.78. With Oc1c2ccccc2c2c3c(cccc13)N=N2 [SP 600125] the Synergy score was 1.15. In the case of c1ccc2c(CCNc3ccc(Nc4ccncc4)cc3)c[nH]c2c1 [JNJ 26854165], the Synergy score was 1.50. CC(=O)c1c(C)c2cnc(Nc3ccc(N4CCNCC4)cn3)nc2n(C2CCCC2)c1=O [PD-0332991] showed a Synergy score of 2.71.

Each molecule was assayed on BT-20 in the same assay as above. Conditions: Compound 1 in combination with the named second active agent, 72 h, mean of n = 3 experiments in triplicate.
Assay type: cell-based
Design: scale not given here
Text: as §1, §2, §3
CS(=O)(=O)c1ccc(C(=O)Nc2ccc(Cl)c(-c3ccccn3)c2)c(Cl)c1 [GDC-0449] showed a Synergy score of 0.11. Molecule Oc1c2ccccc2c2c3c(cccc13)N=N2 [SP 600125] has a Synergy score of 0.00. c1ccc2c(CCNc3ccc(Nc4ccncc4)cc3)c[nH]c2c1 [JNJ 26854165] gave a Synergy score of 1.42.
